In patent publication US20240207422A1, “NERVE TARGETING PEPTIDE CONJUGATES AND METHODS OF USE” (Alume Biosciences, Inc., priority 2022, published 2024):

How the values were obtained:
[1] = tested on: excised human nerve tissue; assay: Phage display selection on excised human nerve tissue (Nerve2, Nerve3), NextGen sequence counts; format: binding; details: unique sequence count (relative enrichment); Nerve3 only
Method in brief: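 Randomized parent-peptide m13 phage libraries (about 50% mutation per residue) selected on washed excised human nerve tissue over multiple rounds, washing nerve pellet with PBS. NextGen sequencing of pools after rounds 2, 3 and 4; translated peptides counted by frequency, with counts 6 or greater retained.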

human nerve extract = assay: Phage display selection on plates coated with human nerve extract (Plated Nerve2), NextGen sequence counts; format: binding; details: unique sequence count (relative enrichment); Plated Nerve2 only
Procedure: Several m13 phage libraries were constructed expressing randomized variants of a parent peptide (QVPWEEPYYVVKKS-SGGL; SEQ ID NO: 576). In particular, the first 14 amino acids of the parent peptide were randomized using degenerate oligonucleotide synthesis to obtain a diverse set of peptides with a mutation rate of about 50% per residue.
To accomplish this, synthesis was carried out by the XXK codon design approach, where X is any base and K is G or T. To bias synthesis towards the parent sequence, synthesis was carried out at each X position with a mixture of about 70%-85% of the parent nucleotide and 15-30% of the remaining 3 nucleotides. The resulting molecules were inserted into fADL-1e (Antibody Design Laboratories), which is a type 3 phage display vector having a cloning site on the N-terminal side of the full-length gene III protein. The fusion proteins are directed to the periplasm by the PelB leader peptide, which is inserted in the vector […].
Collectively, the phage display libraries used in the screens comprised about 600 million peptides, with sequencing analysis confirming a mutation rate of about 50% per residue.
Phage libraries were independently processed, as follows, with five biological samples: two independent samples of excised human nerve tissue, one sample of a human nerve extract, and two independent samples of human muscle tissue, as follows:
Human Nerve Extracts: Phage libraries were incubated for up to 24 hours at 4° C. in 96 well plates that had been coated with a human nerve extract. Plates were then washed with PBS and phage were eluted using 0.2M glycine pH 2.0. Phage supernatants where then neutralized with Tris pH 9.0 prior to plating on TG1 bacteria and LB agar plates. Colonies were counted to determine titer followed by DNA preparation of pools of phage and NextGen sequencing. After rounds of selection, phage were pooled and amplified for iterative selection. Phage that eluted by 0.2M glycine pH 2.0 (the nerve binders) at each round were sequenced. NextGen sequencing of pools after 2, 3 and 4 rounds of selection were used to isolate candidate sequences that were further analyzed using bioinformatics.
NextGen sequencing of pools after 2, 3 and 4 rounds of selection were used to isolate candidate sequences from each of the five samples. These five data sets were then analyzed as described in the next section.
Peptide and vector sequences were translated starting at the first start codon in the nucleotide sequence. […] Trimmed peptides with identical sequences were combined and quantified according to their frequency (count).
Following processing, an R script was written to merge the unique peptide sequences (with counts 6 or greater) from the 5 different data sets to analyze the overlap between nerve and muscle binding activity.
For the single Nerve2, Nerve3, and Plated Nerve2 (pn2) subsets, the number of counts for each group was set at a threshold giving rise to at least 100 peptides. […] As highlighted in yellow in FIG. 1B, the representative group also included 6 unique peptides overlapping between nerve2 and nerve3, 200 unique peptides overlapping between nerve2 and plated nerve2 (at least 60 counts), 4 unique peptides overlapping between nerve3 and plated nerve2. Finally, as highlighted in green in FIG. 1B, the representative group also included […] common to the nerve2, nerve3, and plated nerve2 sets.

430 (QLPWGKPYNVVVYS) [compound 430]
Count [1]: 101

431 (QTPWQVPGYNMLNS) [compound 431]
Count [1]: 99

432 (AYLSEQLNYVMKNS) [compound 432]
Count [1]: 98

433 (QASSEAPSYPVVKS) [compound 433]
Count [1]: 95

434 (LDQWHTPNYVVRKS) [compound 434]
Count [1]: 92

435 (QLLWDPPSYFVNNS) [compound 435]
Count [1]: 92

436 (DVPWEQPYFVVRNS) [compound 436]
Count [1]: 90

437 (QVPYGQSFVVGTSS) [compound 437]
Count [1]: 90

438 (QLRWEDQYAHVEKS) [compound 438]
Count [1]: 89

439 (HVAWKAPYHFTKNS) [compound 439]
Count [1]: 87

440 (DGLYVRSFYVLQHS) [compound 440]
Count [1]: 86

441 (QFALKGLNGDFQKS) [compound 441]
Count [1]: 83

442 (QFPSAETYRIVKKF) [compound 442]
Count [1]: 83

443 (QLTWELGYHAFVKP) [compound 443]
Count [1]: 83

444 (QLLRNLSYDGAKYS) [compound 444]
Count [1]: 82

445 (QLRVKLQYDVIANN) [compound 445]
Count [1]: 81

446 (QVPAREPNHIVKKS) [compound 446]
Count [1]: 80

447 (SAREQGTFYFVNNS) [compound 447]
Count [1]: 80

448 (LFPKYAPHESVKMS) [compound 448]
Count [1]: 78

449 (QVPGNELYFVLKQY) [compound 449]
Count [1]: 77

450 (QFAWSQSYAYSSTT) [compound 450]
Count (human nerve extract): 107

451 (QGQWDKPYDAVQNS) [compound 451]
Count (human nerve extract): 88

452 (QIPGDAQYRLVKRS) [compound 452]
Count (human nerve extract): 80

453 (QIPWTQPQYDVTPP) [compound 453]
Count (human nerve extract): 79

454 (HVELESSYYFVNNS) [compound 454]
Count (human nerve extract): 78

455 (QFPLAEPYYHLTES) [compound 455]
Count (human nerve extract): 77

456 (HFDWEEPYYDASKA) [compound 456]
Count (human nerve extract): 73

457 (SYEWEDPYYDLKYS) [compound 457]
Count (human nerve extract): 73

458 (NVTGAEYYYRMNNY) [compound 458]
Count (human nerve extract): 67

459 (HVSCEVPCYGALAS) [compound 459]
Count (human nerve extract): 66

460 (HDASEGAYYVERNS) [compound 460]
Count (human nerve extract): 65

461 (QFGWEEPYYVLHTV) [compound 461]
Count (human nerve extract): 65

462 (HLSREGTYYAVKQP) [compound 462]
Count (human nerve extract): 64

463 (QLPLYDPYYTVRTS) [compound 463]
Count (human nerve extract): 63

464 (ELPYEEPGTFVEKA) [compound 464]
Count (human nerve extract): 62

465 (QFPWEEPYYVFTNS) [compound 465]
Count (human nerve extract): 62

466 (QIPGGERSYVLENS) [compound 466]
Count (human nerve extract): 62

467 (QITSDKPYYVVKNS) [compound 467]
Count (human nerve extract): 60

468 (YDPSGEPYYRVNNH) [compound 468]
Count (human nerve extract): 59

469 (QVPRPASSYIGKTS) [compound 469]
Count (human nerve extract): 58

470 (QIPLEGPTYVTNPS) [compound 470]
Count (human nerve extract): 57

471 (AIPSGAPYYKVNKY) [compound 471]
Count (human nerve extract): 56

472 (EFRSEQPYYFVNKY) [compound 472]
Count (human nerve extract): 55

473 (QIRWDETYYDIQKT) [compound 473]
Count (human nerve extract): 55

474 (QLALEQQSYDAKMS) [compound 474]
Count (human nerve extract): 55

475 (ALPWEHPWCVSKNC) [compound 475]
Count (human nerve extract): 54

476 (HVPVLEPYDLVKKS) [compound 476]
Count (human nerve extract): 54

477 (QIRSTEPYYVFKKT) [compound 477]
Count (human nerve extract): 54

478 (QSPGTNPQNVLIKS) [compound 478]
Count (human nerve extract): 54

479 (QITSVDPSSLAYRS) [compound 479]
Count (human nerve extract): 53

480 (QMPSGAPYDATLNS) [compound 480]
Count (human nerve extract): 53

481 (QNPWDEPSYVVKNV) [compound 481]
Count (human nerve extract): 53

482 (QSPFDETAYGLTHS) [compound 482]
Count (human nerve extract): 53

483 (QVLFAKSYYSVKDS) [compound 483]
Count (human nerve extract): 53

484 (RFPADEEHYVGKLS) [compound 484]
Count (human nerve extract): 53

485 (YVPYEEQKYVVTKS) [compound 485]
Count (human nerve extract): 53

486 (HSQGQTTEYVGKQS) [compound 486]
Count (human nerve extract): 52

487 (DFQSEETRNLAKMP) [compound 487]
Count (human nerve extract): 51

488 (DVPWPAPYYAVSKY) [compound 488]
Count (human nerve extract): 51

489 (QFPGEESHYVVRNS) [compound 489]
Count (human nerve extract): 51

490 (QFQWETPSHVINDS) [compound 490]
Count (human nerve extract): 51

491 (QTPRQTLYYSVKAY) [compound 491]
Count (human nerve extract): 51

492 (HVAYQEPFVYQKTS) [compound 492]
Count (human nerve extract): 50

493 (QISRGDTYYVMNKS) [compound 493]
Count (human nerve extract): 50

494 (HIPGEEPSDGVRSY) [compound 494]
Count (human nerve extract): 49

495 (HLSVAEPYYAVRNS) [compound 495]
Count (human nerve extract): 49

496 (QLQWQKSNWVGKIT) [compound 496]
Count (human nerve extract): 49

497 (EIPWEGTYRLVKHS) [compound 497]
Count (human nerve extract): 48

498 (HVPQKEPYYVVKTF) [compound 498]
Count (human nerve extract): 48

499 (QFPLFTTFYNVEES) [compound 499]
Count (human nerve extract): 47

500 (QFPWETSYYIVKNS) [compound 500]
Count (human nerve extract): 47

501 (QLAGGDPYVLPKLS) [compound 501]
Count (human nerve extract): 47

502 (DVASGEQSYIVVKY) [compound 502]
Count (human nerve extract): 46

503 (HVWLEDTISAEKKS) [compound 503]
Count (human nerve extract): 46

504 (QVQWDGASSIVQKT) [compound 504]
Count (human nerve extract): 46

505 (HFRGPEPYKFVENP) [compound 505]
Count (human nerve extract): 45

506 (HVPWEGPEYIVTQS) [compound 506]
Count (human nerve extract): 45

507 (QFPRHDPNEVVHKS) [compound 507]
Count (human nerve extract): 45

508 (QIPSEEPNYILKSS) [compound 508]
Count (human nerve extract): 45

509 (QRPGDEPSYFVKNS) [compound 509]
Count (human nerve extract): 45

510 (ELTMEQPSYVGNVS) [compound 510]
Count (human nerve extract): 44

511 (QLPWHEAFFGVNNG) [compound 511]
Count (human nerve extract): 44

512 (QVLEKEPSSNVHKS) [compound 512]
Count (human nerve extract): 44

513 (HVPSYAPNYEIKES) [compound 513]
Count (human nerve extract): 43

514 (QHLGEEPSYSGEYA) [compound 514]
Count (human nerve extract): 43

515 (SISSKDPYALVKYS) [compound 515]
Count (human nerve extract): 43

516 (QFPWDEPNYVVKNF) [compound 516]
Count (human nerve extract): 42

517 (QLPFNEPYYSQQVS) [compound 517]
Count (human nerve extract): 42

518 (HLSMEAPYYGVKEY) [compound 518]
Count (human nerve extract): 41

519 (HVLGEQPYSVVKTS) [compound 519]
Count (human nerve extract): 41

520 (HVSWEEPRYIVKDS) [compound 520]
Count (human nerve extract): 41

521 (QLPWEGPYYIVKKS) [compound 521]
Count (human nerve extract): 41

522 (QTPAEKPYYVVKKY) [compound 522]
Count (human nerve extract): 41

523 (HVPSQEWYYDLHKS) [compound 523]
Count (human nerve extract): 40

524 (QFPWHKQFYVGKSS) [compound 524]
Count (human nerve extract): 40

525 (DFQIVGPSYVGKNS) [compound 525]
Count (human nerve extract): 39

526 (HLPSEKPWYDLDGS) [compound 526]
Count (human nerve extract): 39

527 (HVSWSTSKYVVNHS) [compound 527]
Count (human nerve extract): 39

528 (QISWEDPDYGVRKS) [compound 528]
Count (human nerve extract): 39

529 (QVPCEQQSCVVKNS) [compound 529]
Count (human nerve extract): 39

530 (LFTGQQSYYEVQES) [compound 530]
Count (human nerve extract): 38
